The subject of test [1] is NASH patients with F1 to F3 fibrosis. The test is described as follows: Histological fibrosis change after 1-year treatment in phase IIb CENTAUR trial. It counts as in vivo, human. Conditions: cenicriviroc arm n=9, 1-year treatment.
The test system is the same in test [2]. Conditions: phase IIb CENTAUR trial, 1-year treatment; cited from earlier work.

As for `CCCCOCCOc1ccc(-c2ccc3c(c2)/C=C(/C(=O)Nc2ccc([S@@+]([O-])Cc4cncn4CCC)cc2)CCCN3CC(C)C)cc1` [Cenicriviroc], in test [1], the “patients with improvement of fibrosis in the year 1 biopsy” value was 4 patients. Moreover, the histological fibrosis entry in test [2] is recorded as “improved histological fibrosis”.

The values above are taken from patent US20260185169A1, “MOLECULAR SIGNATURES TO PREDICT LONG-TERM LIVER FIBROSIS PROGRESSION” (THE BOARD OF REGENTS OF THE UNIVERSITY OF TEXAS SYSTEM, priority 2022, published 2026).
